# Measured values: paper PMC4339681, “2- and 3-substituted imidazo[1,2-a]pyrazines as inhibitors of bacterial type IV secretion” (Bioorganic & Medicinal Chemistry, 2014)
# Where two headings read alike, the source gives them in different places.
# Columns and labels:
# [1] = molecular target: T1, VirB11 ATPase HP0525 (Helicobacter pylori, UniProt Q7BK04); test: colorimetric in vitro ATPase assay (release of inorganic phosphate), IC50 estimation; format: biochemical; details: for inhibitory activity in words: ATPase assay
# Procedure: The HP0525 protein was produced recombinantly in Escherichia coli and purified to high purity as described previously.[10] The ATPase activity of HP0525 was measured by monitoring the release of inorganic phosphate (Pi) using an in vitro ATPase assay (see Section 4 and SI). Initially, the inhibitory effects of the compounds were evaluated by performing the ATPase assay with and without compound present at concentrations of 500 μM (or 250 μM), 50 μM and 5 μM (data not shown). The compounds with inhibitory activities were further analyzed for dose-dependency by estimating their IC50s (Fig. 2).
# (§1) Assays for the activity of the HP0525 inhibitors were performed using a colorimetric ATPase assay (Innova Biosciences), see SI for details. The enzymatic reactions were performed in 96-well format for 30 min at 37 °C followed by measuring the absorbance at 620 nm, detecting the presence of inorganic phosphate product. […] Michaelis–Menten kinetics were performed under the same conditions as above but with various concentrations of ATP ranging from 0 to 500 μM, with and without 10 μM of compound 11. Both IC50 and Michaelis–Menten kinetics measurements were made in triplicate.
# ATPase activity measurements were carried out using a colorimetric in vitro ATPase assay kit (Innova Biosciences), using 96-well ELISA microplates (Greiner Bio-One) with reaction volumes of 100 µL in each well. Multi-pipettes with either 8 tips or 96 tips were used. Enzymatic reactions were performed for 30 min at 37 °C followed by measuring the absorbance at 620 nm, detecting the presence of inorganic phosphate product. Each reaction contained 100 mM Tris–HCl, pH 7.5; 2.5 mM MgCl2; 125 μM ATP; 5% DMSO; 25 mM NaCl; 0.5 mM DTT and 0.053 μM HP0525, with or without inhibitor. In detail, the assay can be described in steps. Step 1: 48 μL of substrate buffer mix (providing the components Tris–HCl, pH 7.5; MgCl2; ATP and DMSO) was dispensed to each well. Step 2: 2 μL of compound (solublized in DMSO) was added to corresponding well. Step 3: Enzymatic reaction was started by the addition of 50 μL of protein (in 50 mM Tris-HCl, pH 7.5; 50 mM NaCl and 1 mM DTT) to the wells. Step 4: Reaction plates were incubated at 37 degrees for 30 min. Step 5: The reaction was stopped by the addition of 25 uL of Gold mix reagent, followed by vigorous mixing. After 2-5 min, 10 uL of stabilizer solution was added to the reaction. Step 6: After an additional 30 min incubation at room temperature, the absorbance at 620 nm was measured using a microplate reader.
# In the negative control, the protein was added after the Gold mix, as described in the standard protocol of the Innova Biociences ATPase assay kit. As an alternative negative control, providing equivalent readouts, 10 mM EDTA could also be added at Step 2, then removing the catalytically essential Mg ions from the active site of HP0525.
# (§2) Michaelis-Menten kinetics were performed under the same conditions as above but with various concentrations of ATP ranging from 0 to 500 μM, with and without 10 μM of compound 11. Negative controls for each ATP concentration were used. GraphPad Prism version 5.0d for Mac OS X (GraphPad Software, San Diego California USA, www.graphpad.com) was used for the IC50 calculations using the Prism equation for non-linear normalized dose-response ‘Log(Inhibitor) vs. normalized response’ with Hill slope set to 1; and for Michaelis-Menten and Lineweaver-Burk analysis.
# [2] = molecular target: T1, VirB11 ATPase HP0525; test: steady-state (Michaelis–Menten / Lineweaver–Burk) kinetics, mode of inhibition; format: biochemical; details: ATP 0 to 500 μM, with and without 10 μM of compound
# Procedure: as §1, §2
# [3] = 125 μM ATP, 0.053 μM HP0525, 5% DMSO, pH 7.5, 30 min at 37 °C, triplicate, read-out: IC50
# T1 sequence (Q7BK04 entry or part of it): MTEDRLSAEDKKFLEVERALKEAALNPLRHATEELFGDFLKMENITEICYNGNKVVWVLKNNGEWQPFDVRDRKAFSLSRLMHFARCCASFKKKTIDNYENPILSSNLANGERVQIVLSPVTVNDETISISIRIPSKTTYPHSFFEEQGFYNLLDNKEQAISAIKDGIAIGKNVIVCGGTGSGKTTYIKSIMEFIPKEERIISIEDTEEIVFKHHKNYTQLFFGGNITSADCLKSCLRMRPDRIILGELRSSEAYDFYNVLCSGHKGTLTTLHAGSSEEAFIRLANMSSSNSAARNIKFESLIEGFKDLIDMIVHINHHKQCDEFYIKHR
Compound,IC50 [1],further results
Cc1ccc(S(=O)(=O)Nc2nccn3c(-c4ccccc4Oc4ccccc4)cnc23)cc1 [Compound 2],96 ± 42 µM,–
"Cc1ccc(S(=O)(=O)Nc2ccc(Nc3nccn4ccnc34)cc2)cc1 [Compound 35, N-(4-(Imidazo[1,2-a]pyrazin-8-ylamino)phenyl)-4-methylbenzenesulfonamide]",> 1000 µM,inhibitory activity in words [1]: complete loss of activity
"N-(4-((6-Bromo-2-(naphthalen-2-yl)imidazo[1,2-a]pyrazin-8-yl)amino)phenyl)-4- methylbenzenesulfonamide [Compound 37]",–,"IC50 [1, 3]: 6 ± 2 µM"
"N-(2-((6-Bromo-2-(naphthalen-2-yl)imidazo[1,2-a]pyrazin-8-yl)amino)ethyl)-4- methylbenzenesulfonamide [Compound 38]",–,"IC50 [1, 3]: 77 ± 20 µM"
"4-methyl-N-[2-(2-naphthyl)imidazo[1,2-a]pyrazine-8-yl]benzenesulfonamide [Compound 1]",–,"IC50 [1, 3]: 77 ± 16 µM"
"O=S(=O)(Nc1cccc(Nc2nccn3cc(-c4ccc5ccccc5c4)nc23)c1)c1cccc2cccnc12 [Compound 34, N-(3-((2-(Naphthalen-2-yl)imidazo[1,2-a]pyrazin-8-yl)amino)phenyl)quinoline-8-sulfonamide]",7 ± 2 µM,–
"Nc1nccn2cc(-c3ccc4ccccc4c3)nc12 [Compound 25, 2-(Naphthalen-2-yl)imidazo[1,2-a]pyrazin-8-amine]",> 1000 µM,inhibitory activity in words [1]: complete loss of activity
"O=S(=O)(Nc1ccc(Nc2nccn3cc(-c4ccc5ccccc5c4)nc23)cc1)c1cccc2cccnc12 [Compound 33, N-(4-((2-(Naphthalen-2-yl)imidazo[1,2-a]pyrazin-8-yl)amino)phenyl)quinoline-8-sulfonamide]",7 ± 2 µM,–
"Cc1ccc(S(=O)(=O)Nc2nccn3cc(-c4ccc5ccccc5c4)nc23)cc1 [Compound 7, 4-methyl-N-[2-(2-naphthyl)imidazo[1,2-a]pyrazine-8-yl]benzenesulfonamide]",88 ± 14 µM,–
Cc1ccc(S(=O)(=O)Nc2nccn3c(-c4cc(C)cc(C)c4)cnc23)cc1 [Compound 4],154 ± 22 µM,–
"COc1ccc(-c2cnc3c(NS(=O)(=O)c4ccc(C)cc4)nccn23)cc1OC [Compound 3, N-[3-(3,4-dimethoxyphenyl)imidazo[1,2-a]pyrazine-8-yl]-4-methyl-benzenesulfonamide]",144 ± 14 µM,–
"Cc1ccc(S(=O)(=O)Nc2nccn3cc(-c4ccccc4Oc4ccccc4)nc23)cc1 [Compound 8, 4-methyl-N-[2-(2-phenoxyphenyl)imidazo[1,2-a]pyrazine-8-yl]benzenesulfonamide]",82 ± 14 µM,–
"Cc1ccc(S(=O)(=O)Nc2ccc(Nc3nccn4c(-c5ccsc5)cnc34)cc2)cc1 [Compound 6, 4-methyl-N-[4-[[3-(3-thienyl)imidazo[1,2-a]pyrazine-8-yl]amino]phenyl]benzenesulfonamide]",48 ± 7 µM,–
"Cc1ccc(S(=O)(=O)Nc2nccn3cc(-c4cc(C)cc(C)c4)nc23)cc1 [Compound 10, N-[2-(3,5-dimethylphenyl)imidazo[1,2-a]pyrazine-8-yl]-4-methylbenzenesulfonamide]",133 ± 16 µM,–
"Cc1ccc(S(=O)(=O)Nc2ccc(Nc3nccn4cc(-c5cnc6ccccc6n5)nc34)cc2)cc1 [Compound 36, 4-Methyl-N-(4-(2-(quinoxalin-2-yl)imidazo[1,2-a]pyrazin-8-ylamino)phenyl)benzenesulfonamide]",28 ± 6 µM,–
"Cc1ccc(S(=O)(=O)Nc2ccc(CNc3nccn4cc(-c5ccc6ccccc6c5)nc34)cc2)cc1 [Compound 29, 4-Methyl-N-(4-((2-(naphthalen-2-yl)imidazo[1,2-a]pyrazin-8-ylamino)methyl)phenyl)benzenesulfonamide]",75 ± 35 µM,–
"Cc1ccc(S(=O)(=O)Nc2ccc(Nc3nccn4cc(-c5ccc6ccccc6c5)nc34)cc2)cc1 [Compound 11, 4-methyl-N-[4-[[2-(2-naphthyl)imidazo[1,2-a]pyrazine-8-yl]amino]phenyl]benzenesulfonamide]",6 ± 1 µM,mode of inhibition [2]: competitive inhibitor
"Cc1ccc(S(=O)(=O)Nc2ccc(Oc3nccn4cc(-c5ccc6ccccc6c5)nc34)cc2)cc1 [Compound 28, 4-Methyl-N-(4-(2-(naphthalen-2-yl)imidazo[1,2-a]pyrazin-8-yloxy)phenyl)benzenesulfonamide]",29 ± 9 µM,–
"Cc1ccc(S(=O)(=O)Nc2ccc(Nc3nccn4c(-c5ccc6ccccc6c5)cnc34)cc2)cc1 [Compound 5, 4-methyl-N-[4-[3-(2-naphthyl)imidazo[1,2-a]pyrazine-8-yl]aminophenyl]benzenesulfonamide]",20 ± 3 µM,–
"Cc1ccc(S(=O)(=O)NCCNc2nccn3cc(-c4ccc5ccccc5c4)nc23)cc1 [Compound 31, 4-Methyl-N-(2-(2-(naphthalen-2-yl)imidazo[1,2-a]pyrazin-8-ylamino)ethyl)benzenesulfonamide]",7 ± 2 µM,–
"Cc1ccc(S(=O)(=O)Nc2ccc(Nc3nccn4cc(-c5ccsc5)nc34)cc2)cc1 [Compound 12, 4-methyl-N-[4-[[2-(3-thienyl)imidazo[1,2-a]pyrazine-8-yl]amino]phenyl]benzenesulfonamide]",99 ± 18 µM,–
"Nc1ccc(Nc2nccn3cc(-c4ccc5ccccc5c4)nc23)cc1 [Compound 26, N^’-(2-(Naphthalen-2-yl)imidazo[1,2-a]pyrazin-8-yl)benzene-1,4-diamine]",18 ± 5 µM,–
"COc1ccc(-c2cn3ccnc(NS(=O)(=O)c4ccc(C)cc4)c3n2)cc1OC [Compound 9, N-[2-(3,4-dimethoxylphenyl)imidazo[1,2-a]pyrazine-8-yl]-4-methyl-benzenesulfonamide]",167 ± 43 µM,–
"Cc1ccc(S(=O)(=O)Nc2ccc(Nc3nccn4cc(-c5ccccc5Oc5ccccc5)nc34)cc2)cc1 [Compound 13, 4-Methyl-N-(4-(2-(2-phenoxyphenyl)imidazo[1,2-a]pyrazin-8-ylamino)phenyl)benzenesulfonamide]",18 ± 4 µM,–
"Cc1ccc(S(=O)(=O)NCCCNc2nccn3cc(-c4ccc5ccccc5c4)nc23)cc1 [Compound 30, 4-Methyl-N-(3-(2-(naphthalen-2-yl)imidazo[1,2-a]pyrazin-8-ylamino)propyl)benzenesulfonamide]",58 ± 38 µM,–
"CS(=O)(=O)Nc1ccc(Nc2nccn3cc(-c4ccc5ccccc5c4)nc23)cc1 [Compound 27, N-(4-(2-(Naphthalen-2-yl)imidazo[1,2-a]pyrazin-8-ylamino)phenyl)methanesulfonamide]",61 ± 28 µM,–
"c1cncc(-c2cccc(Nc3nccn4cc(-c5ccc6ccccc6c5)nc34)c2)c1 [Compound 32, 2-(Naphthalen-2-yl)-N-(3-(pyridin-3-yl)phenyl)imidazo[1,2-a]pyrazin-8-amine]",4 ± 1 µM,–
